Patent publication US20060178415A1, “Azole derivatives as antifungal agents” (priority 2002, published 2006)
Converted amounts (≈) assume the structure as drawn. Where two headings read alike, the source gives them in different places.

Legend:
[1] = tested on: ergosterol P^450DM in A. fumigatus lysates; settings: cited from earlier work
[2] = molecular target: T1, ergosterol P^450DM in C. albicans lysates (Candida albicans, UniProt P10613); settings: cited from earlier work
T1 construct: host or cells: C. albicans lysate

A. fum. = assay: In vitro antifungal MIC, NCCLS M38P broth method in RPMI 1640/MOPS pH 7; format: cell-based, Aspergillus fumigatus; settings: for MIC: Aspergillus fumigatus
Text: The in vitro evaluation of the antifungal activity of the compound of this invention (as shown in Table I) can be performed by determining the minimum inhibitory concentration (MIC) which is the concentration of the test compound in Rosewell Park Memorial Institute (RPMI) 1640 liquid medium buffered with 3-(Morpholino)propane sulfonic acid (MOPS) to pH 7, at which there is significant inhibition of the particular fungi. In practice the National Committee for Clinical Laboratory Standard (NCCLS) M27A document for Candida and Cryptococcus and M38P for Aspergillus was used to determine the MIC and readings recorded only when the Quality Control results fell into the acceptable range. After MIC results had been recorded, 100 μL from each of the well showing no growth was spread over Sabouraud Dextrose Agar (SDA) to determine the minimum fungicidal concentration (MFC).

[3] = A. fumigatus strain 1008, RPMI 1640, MOPS pH 7, read-out: MIC (A. fum.) 1008
[4] = A. fumigatus strain Si-l, RPMI 1640, MOPS pH 7, read-out: MIC (A. fum.) Si-l
[5] = A. fumigatus strain 1008, RPMI 1640, MOPS pH 7
[6] = A. fumigatus strain Si-l, RPMI 1640, MOPS pH 7
[7] = pH 7, read-out: MIC (A. fum.) 1008
[8] = pH 7, read-out: MIC (A. fum.) Si-l

T1 sequence (P10613 whole entry): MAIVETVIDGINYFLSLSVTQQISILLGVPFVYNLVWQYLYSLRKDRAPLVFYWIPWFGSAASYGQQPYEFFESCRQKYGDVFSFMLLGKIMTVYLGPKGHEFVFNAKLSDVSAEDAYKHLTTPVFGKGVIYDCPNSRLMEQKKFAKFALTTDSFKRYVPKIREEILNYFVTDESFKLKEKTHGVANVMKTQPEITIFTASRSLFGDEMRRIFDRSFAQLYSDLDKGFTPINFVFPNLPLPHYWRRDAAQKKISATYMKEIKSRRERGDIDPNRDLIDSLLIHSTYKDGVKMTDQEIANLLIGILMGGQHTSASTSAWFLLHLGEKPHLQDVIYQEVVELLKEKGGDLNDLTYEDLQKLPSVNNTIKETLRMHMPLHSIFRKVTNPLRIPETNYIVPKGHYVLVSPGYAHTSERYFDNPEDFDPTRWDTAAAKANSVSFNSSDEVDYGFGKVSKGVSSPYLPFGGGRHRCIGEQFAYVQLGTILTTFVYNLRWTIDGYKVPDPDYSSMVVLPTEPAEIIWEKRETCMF

## C[C@@H](c1ncncc1F)[C@](O)(Cn1cncn1)c1ccc(F)cc1F [Voriconazole]
[1]
  fold greater inhibition of ergosterol P450DM compared to fluconazole: 160 fold
[2]
  fold greater inhibition of ergosterol P450DM compared to fluconazole: 1.6 fold

## COc1ccc(NC(=O)N(NC(=O)OC(C)(C)C)[C@H](C)[C@](O)(Cn2cncn2)c2ccc(F)cc2F)c(OC)c1 [Compound No. 27, 1-t-Butoxycarbonyl-2-[(1R,2R)-2-(2,4-difluorophenyl)-2-hydroxy-1-methyl-3-(1H-1,2,4-triazol-1-yl)propyl]-4-[2,4-dimethoxyphenyl]semicarbazide]
A. fum.; [3]
  MIC: > 16 µg/mL
A. fum.; [4]
  MIC: > 16 µg/mL

## C[C@@H](n1ncn(Cc2ccco2)c1=S)[C@](O)(Cn1cncn1)c1ccc(F)cc1F [Compound No. 53, 2-[(1R,2R)-2-(2,4-Difluorophenyl)-2-hydroxy-1-methyl-3-(1H-1,2,4-triazol-1-yl)propyl]-4-[2-furanmethyl]-(2H,4H)-1,2,4-triazol-3-thione]
A. fum.; [5]
  MIC (A. fum.) 1008: 8 µg/mL (≈ 18.5 µM)
A. fum.; [6]
  MIC (A. fum.) Si-l: 4 µg/mL (≈ 9.25 µM)

## C[C@@H](N(N)C(=S)Nc1ccccc1)[C@](O)(Cn1cncn1)c1ccc(F)cc1F [Compound No. 29, 2-[(1R,2R)-2-(2,4-difluorophenyl)-2-hydroxy-1-methyl-3-(1H-1,2,4-triazol-1-yl)propyl]-4-phenyl thiosemicarbazide]
A. fum.; [3]
  MIC: > 16 µg/mL
A. fum.; [4]
  MIC: > 16 µg/mL

## C[C@@H](N(NC(=O)OC(C)(C)C)C(=S)Nc1ccc(-n2cnnn2)cc1)[C@](O)(Cn1cncn1)c1ccc(F)cc1F [Compound No. 9, 1-t-Butoxycarbonyl-2-[(1R,2R)-2-(2,4-difluorophenyl)-2-hydroxy-1-methyl-3-(1H-1,2,4-triazol-1-yl)propyl]-4-[4-([1,2,3,4-tetrazol-1-yl])phenyl]thiosemicarbazide]
A. fum.; [3]
  MIC: > 16 µg/mL
A. fum.; [4]
  MIC: > 16 µg/mL

## C[C@@H](N(NC(=O)OC(C)(C)C)C(=S)Nc1ccc(OC(F)(F)F)cc1)[C@](O)(Cn1cncn1)c1ccc(F)cc1F [Compound No. 6, 1-t-Butoxycarbonyl-2-[(1R,2R)-2-(2,4-difluorophenyl)-2-hydroxy-1-methyl-3-(1H-1,2,4-triazol-1-yl)propyl]-4-[4-trifluoromethoxyphenyl]thiosemicarbazide]
A. fum.; [3]
  MIC: 8 µg/mL (≈ 13.3 µM)
A. fum.; [4]
  MIC: 8 µg/mL (≈ 13.3 µM)

## C[C@@H](N(N)C(=S)Nc1ccc(O)cc1)[C@](O)(Cn1cncn1)c1ccc(F)cc1F [Compound No. 30, 2-[(1R,2R)-2-(2,4-difluorophenyl)-2-hydroxy-1-methyl-3-(1H-1,2,4-triazol-1-yl)propyl]-4-[4-hydroxyphenyl]thiosemicarbazide]
A. fum.; [7]
  MIC: > 16 µg/mL
A. fum.; [8]
  MIC: > 16 µg/mL

## C[C@@H](N(N)C(=S)NCc1cccs1)[C@](O)(Cn1cncn1)c1ccc(F)cc1F [Compound No. 36, 2-[(1R,2R)-2-(2,4-difluorophenyl)-2-hydroxy-1-methyl-3-(1H-1,2,4-triazol-1-yl)propyl]-4-[2-thiophenmethyl]thiosemicarbazide]
A. fum.; [5]
  MIC (A. fum.) 1008: 4 µg/mL (≈ 9.12 µM)
A. fum.; [6]
  MIC (A. fum.) Si-l: 2 µg/mL (≈ 4.56 µM)

## COC(=O)C(c1ccccc1)n1cnn([C@H](C)[C@](O)(Cn2cncn2)c2ccc(F)cc2F)c1=S (some centres unmarked) [Compound No. 50]
A. fum.; [5]
  MIC (A. fum.) 1008: >16 µg/mL
A. fum.; [6]
  MIC (A. fum.) Si-l: >16 µg/mL

## C[C@@H](N(NC(=O)OC(C)(C)C)C(=S)Nc1ccc(OCC(F)(F)C(F)F)cc1)[C@](O)(Cn1cncn1)c1ccc(F)cc1F [Compound No. 7, 1-t-Butoxycarbonyl-2-[(1R,2R)-2-(2,4-difluorophenyl)-2-hydroxy-1-methyl-3-(1H-1,2,4-triazol-1-yl)propyl]-4-[4-(2,2,3,3-tetrafluoropropoxy)phenyl]thiosemicarbazide]
A. fum.; [3]
  MIC: 4 µg/mL (≈ 6.17 µM)
A. fum.; [4]
  MIC: 4 µg/mL (≈ 6.17 µM)

## C[C@@H](n1ncn(-c2ccc(Cl)cn2)c1=S)[C@](O)(Cn1cncn1)c1ccc(F)cc1F [Compound No. 55, 2-[(1R,2R)-2-(2,4-Difluorophenyl)-2-hydroxy-1-methyl-3-(1H-1,2,4-triazol-1-yl)propyl]-4-[3-chloropyridin-6-yl]-(2H,4H)-1,2,4-triazol-3-thione]
A. fum.; [3]
  MIC: 4 µg/mL (≈ 8.62 µM)
A. fum.; [4]
  MIC: 2 µg/mL (≈ 4.31 µM)

## 1-t-Butoxycarbonyl-2-[(1R,2R)-2-(2,4-difluorophenyl)-2-hydroxy-1-methyl-3-(1H-1,2,4-triazol-1-yl)propyl]-4-[4-[4-chlorophenyl]piperizin-1-yl]phenyl]thiosemicarbazide [Compound No. 12]
A. fum.; [5]
  MIC (A. fum.) 1008: 0.25 µg/mL
A. fum.; [6]
  MIC (A. fum.) Si-l: 0.25 µg/mL

## C[C@@H](N(NC(=O)OC(C)(C)C)C(=S)Nc1ccc([N+](=O)[O-])cc1)[C@](O)(Cn1cncn1)c1ccc(F)cc1F [Compound No. 8, 1-t-Butoxycarbonyl-2-[(1R,2R)-2-(2,4difluorophenyl)-2-hydroxy-1-methyl-3-(1H-1,2,4-triazol-1-yl)propyl]-4-[4-nitrophenyl]thiosemicarbazide]
A. fum.; [7]
  MIC: > 16 µg/mL
A. fum.; [8]
  MIC: > 16 µg/mL
